Measurements from paper PMC8206134, “Structural basis of mechano-chemical coupling by the mitotic kinesin KIF14” (Nature Communications, 2021).

Assays:
KIF14 K735 (MT-K735) [1] = molecular target: T1, KIF14 K735 (MT-K735) (Mus musculus, UniProt L0N7N1); experiment: cryo-EM structure; assay type: binding; settings: microtubule-bound; 4 mM ADP plus 2 mM AlCl3 and 10 mM KF; AlFx and Mg2+ densities near noise; open* conformation
T1 construct: core motor domain N391-L735, no neck-linker; GST tag cleaved (PreScission), E. coli BL21(DE3) pLysS; monomer; with Tubulin alpha chain (Sus scrofa, porcine brain); Tubulin beta chain (Sus scrofa, porcine brain)
T1 sequence (L0N7N1 391-735): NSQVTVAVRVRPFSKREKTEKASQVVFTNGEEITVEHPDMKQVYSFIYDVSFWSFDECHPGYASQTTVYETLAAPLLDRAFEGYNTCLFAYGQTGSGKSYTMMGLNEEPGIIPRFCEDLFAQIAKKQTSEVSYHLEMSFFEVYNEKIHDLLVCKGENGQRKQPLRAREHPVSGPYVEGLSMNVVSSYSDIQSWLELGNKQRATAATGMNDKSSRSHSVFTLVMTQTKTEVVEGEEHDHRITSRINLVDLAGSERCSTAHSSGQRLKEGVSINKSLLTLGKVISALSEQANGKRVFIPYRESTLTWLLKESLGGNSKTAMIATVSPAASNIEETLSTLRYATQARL

KIF14 K735 (MT-K735) [2] = molecular target: T1, KIF14 K735 (MT-K735); experiment: malachite green phosphate assay; assay type: biochemical; settings: 1 mM ATP, 2 uM paclitaxel-stabilised microtubules, 50 nM KIF14, 1 mM MgCl2, PIPES pH 6.8
From the text: (§1) malachite green phosphate assay on KIF14 […] (MT-[…]) | Microtubule-stimulated ATPase rate of […], […], […], and […] constructs

KIF14 K743 (MT-K743) = molecular target: T2, KIF14 K743 (MT-K743) (Mus musculus, UniProt L0N7N1); experiment: malachite green phosphate assay; assay type: biochemical; settings: 1 mM ATP, 2 uM paclitaxel-stabilised microtubules, 50 nM KIF14, 1 mM MgCl2, PIPES pH 6.8
T2 construct: motor domain plus 8 neck-linker residues N391-N743; GST tag cleaved (PreScission), E. coli BL21(DE3) pLysS; monomer; with Tubulin alpha chain (Sus scrofa, porcine brain); Tubulin beta chain (Sus scrofa, porcine brain)
T2 sequence (L0N7N1 391-743): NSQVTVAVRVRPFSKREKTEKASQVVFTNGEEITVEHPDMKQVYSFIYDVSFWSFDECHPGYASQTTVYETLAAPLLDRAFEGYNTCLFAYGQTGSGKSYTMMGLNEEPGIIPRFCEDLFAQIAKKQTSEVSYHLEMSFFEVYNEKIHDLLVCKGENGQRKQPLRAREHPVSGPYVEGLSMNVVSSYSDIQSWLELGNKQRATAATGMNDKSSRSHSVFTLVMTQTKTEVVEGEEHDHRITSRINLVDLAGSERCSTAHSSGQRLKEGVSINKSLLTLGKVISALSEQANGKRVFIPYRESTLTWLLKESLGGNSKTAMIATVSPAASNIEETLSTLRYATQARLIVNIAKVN
From the text: as §1

KIF14 K748 (MT-K748) = molecular target: T3, KIF14 K748 (MT-K748) (Mus musculus, UniProt L0N7N1); experiment: malachite green phosphate assay; assay type: biochemical; settings: 1 mM ATP, 2 uM paclitaxel-stabilised microtubules, 50 nM KIF14, 1 mM MgCl2, PIPES pH 6.8
T3 construct: motor domain plus 13 neck-linker residues N391-A748; GST tag cleaved (PreScission), E. coli BL21(DE3) pLysS; monomer; with Tubulin alpha chain (Sus scrofa, porcine brain); Tubulin beta chain (Sus scrofa, porcine brain)
T3 sequence (L0N7N1 391-748): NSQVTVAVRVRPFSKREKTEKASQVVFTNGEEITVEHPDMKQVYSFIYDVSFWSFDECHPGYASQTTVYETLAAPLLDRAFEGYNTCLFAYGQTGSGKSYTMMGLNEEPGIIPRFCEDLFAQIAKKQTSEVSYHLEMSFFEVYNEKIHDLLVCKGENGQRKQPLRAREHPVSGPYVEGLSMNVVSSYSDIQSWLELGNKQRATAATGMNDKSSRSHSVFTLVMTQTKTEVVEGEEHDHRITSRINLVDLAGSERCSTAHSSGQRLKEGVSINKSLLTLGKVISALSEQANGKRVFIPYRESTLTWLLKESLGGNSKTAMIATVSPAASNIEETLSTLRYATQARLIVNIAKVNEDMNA
From the text: as §1

KIF14 K755 (MT-K755) = molecular target: T4, KIF14 K755 (MT-K755) (Mus musculus, UniProt L0N7N1); experiment: malachite green phosphate assay; assay type: biochemical; settings: 1 mM ATP, 2 uM paclitaxel-stabilised microtubules, 50 nM KIF14, 1 mM MgCl2, PIPES pH 6.8
T4 construct: motor domain, neck-linker and part of first CC1 heptad N391-K755; GST tag cleaved (PreScission), E. coli BL21(DE3) pLysS; with Tubulin alpha chain (Sus scrofa, porcine brain); Tubulin beta chain (Sus scrofa, porcine brain)
T4 sequence (L0N7N1 391-755): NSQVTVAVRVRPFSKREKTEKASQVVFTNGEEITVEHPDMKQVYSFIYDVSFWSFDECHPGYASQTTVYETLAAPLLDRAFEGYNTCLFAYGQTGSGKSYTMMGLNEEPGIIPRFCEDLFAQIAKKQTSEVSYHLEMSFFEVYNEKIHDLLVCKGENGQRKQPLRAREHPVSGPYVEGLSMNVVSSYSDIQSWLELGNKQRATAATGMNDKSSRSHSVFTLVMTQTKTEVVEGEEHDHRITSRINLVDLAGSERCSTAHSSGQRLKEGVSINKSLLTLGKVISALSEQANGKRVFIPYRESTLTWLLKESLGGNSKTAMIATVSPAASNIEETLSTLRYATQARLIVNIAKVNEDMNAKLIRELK
From the text: as §1

[3] = molecular target: the molecule itself; experiment: SEC; size-exclusion chromatography of the KIF14 constructs alone in solution, elution compared with protein standards (66, 44 and 25 kDa)

`Nc1ncnc2c1ncn2[C@@H]1O[C@H](COP(=O)(O)OP(=O)(O)O)[C@@H](O)[C@H]1O` [ADP] was tested, and the cryo-EM structure (KIF14 K735 (MT-K735) [1]) was “The MT-K735-AAF and MT-K743-AAF maps contain strong densities associated with ADP”.

With `Nc1ncnc2c1ncn2[C@@H]1O[C@H](COP(=O)(O)OP(=O)(O)OP(=O)(O)O)[C@@H](O)[C@H]1O` [ATP] the “Microtubule-stimulated ATPase rate” value (KIF14 K735 (MT-K735) [2]) was “Microtubule-stimulated ATPase rate of K735, K743, K748, and K755 constructs”, the “Microtubule-stimulated ATPase rate” value (KIF14 K743 (MT-K743)) was “Microtubule-stimulated ATPase rate of K735, K743, K748, and K755 constructs” and the “Microtubule-stimulated ATPase rate” value (KIF14 K748 (MT-K748)) was “Microtubule-stimulated ATPase rate of K735, K743, K748, and K755 constructs”. The “Microtubule-stimulated ATPase rate” value (KIF14 K755 (MT-K755)) was “Microtubule-stimulated ATPase rate of K735, K743, K748, and K755 constructs”.

B1: KIF14 construct K772 (residues Asn-391 to Asp-772) (domain or fragment, mouse, UniProt L0N7N1 391-772, looked up)
chain: NSQVTVAVRVRPFSKREKTEKASQVVFTNGEEITVEHPDMKQVYSFIYDVSFWSFDECHPGYASQTTVYETLAAPLLDRAFEGYNTCLFAYGQTGSGKSYTMMGLNEEPGIIPRFCEDLFAQIAKKQTSEVSYHLEMSFFEVYNEKIHDLLVCKGENGQRKQPLRAREHPVSGPYVEGLSMNVVSSYSDIQSWLELGNKQRATAATGMNDKSSRSHSVFTLVMTQTKTEVVEGEEHDHRITSRINLVDLAGSERCSTAHSSGQRLKEGVSINKSLLTLGKVISALSEQANGKRVFIPYRESTLTWLLKESLGGNSKTAMIATVSPAASNIEETLSTLRYATQARLIVNIAKVNEDMNAKLIRELKAEIEKLKAAQRSNRNID
notes: KIF14, mouse (Mus musculus), full length 1674 amino acids; Dimer in solution by size-exclusion chromatography; source: E. coli BL21 (DE3) pLysS, purified (glutathione resin, cleaved on beads with PreScission protease)
B1 was tested, and the “stoichiometry N” value [3] was 2.
